Laboratory results published in patent US5891892A, “Small molecule biaryl compounds as inhibitors of endothelin converting enzyme” (Warner-Lambert Company, priority 1997, dated 1999).
Read-outs that look alike come from different tables or passages of the source. Non-standard residues stand in square brackets, D forms with d. Residues, ends and D or L forms follow the SMILES beside them. No end group written: not given here.

Columns and labels:
isolated rat hearts = settings: cited from earlier work; for preischemic increase in coronary perfusion pressure induced by big ET-1 and its preischemic effect: phosphoramidon (IC50 =100 μM), BQ-123 0.3 μM; for time to contracture in globally ischemic rat hearts: 30 pMol ET-1 or 10 nMol big ET-1 pretreatment; for IC50: isolated rat hearts, read-out: IC50, reduction of coronary flow
ET receptor = settings: allergic sheep; cited from earlier work
ETA = settings: endotoxic shock, mouse; cited from earlier work
SHR = settings: IV infusion; cited from earlier work
human ECE-1 = target: T1, human ECE-1 (Homo sapiens, UniProt P42892); assay: ECE-1 Assay (ET-1 formed from big ET-1, by Elisa); assay type: biochemical; settings: solubilized membrane fraction of CHO/human ECE-1 cells, 0.1 μM big ET-1, pH 7.0, 1 hour at 37° C.
T1 construct: expressed in transfected cells
T1 sequence (P42892 1-770): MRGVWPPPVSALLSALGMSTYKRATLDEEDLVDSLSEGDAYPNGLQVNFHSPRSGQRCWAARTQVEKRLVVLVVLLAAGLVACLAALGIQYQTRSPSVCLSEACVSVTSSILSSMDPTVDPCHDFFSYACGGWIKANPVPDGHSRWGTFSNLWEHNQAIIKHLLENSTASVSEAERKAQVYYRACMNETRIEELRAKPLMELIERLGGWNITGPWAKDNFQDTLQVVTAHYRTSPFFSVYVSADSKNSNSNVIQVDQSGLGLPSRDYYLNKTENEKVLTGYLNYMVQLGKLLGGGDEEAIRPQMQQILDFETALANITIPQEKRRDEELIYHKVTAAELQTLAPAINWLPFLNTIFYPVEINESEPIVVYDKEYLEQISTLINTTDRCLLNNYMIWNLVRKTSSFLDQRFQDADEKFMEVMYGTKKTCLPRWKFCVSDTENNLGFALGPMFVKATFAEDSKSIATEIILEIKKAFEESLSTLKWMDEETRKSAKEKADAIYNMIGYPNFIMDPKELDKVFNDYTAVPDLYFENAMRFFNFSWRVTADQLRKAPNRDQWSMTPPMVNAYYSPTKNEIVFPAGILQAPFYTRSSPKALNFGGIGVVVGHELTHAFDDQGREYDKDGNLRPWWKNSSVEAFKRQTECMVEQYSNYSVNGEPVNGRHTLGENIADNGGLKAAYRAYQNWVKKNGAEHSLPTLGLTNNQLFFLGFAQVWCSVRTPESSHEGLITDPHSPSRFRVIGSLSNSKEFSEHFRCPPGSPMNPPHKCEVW
Method: All cells were grown in a humidified incubator at 37° C. in an atmosphere of 5% CO2/95% air. The membrane fractions from CHO cells were prepared as described in (Cell 1994; (78):473-485). ECE-1 Assay […] The final concentration of DMSO was 1.5%. […] This final mixture was then directly analyzed for the amount of ET-1 by enzyme-linked immunosorbant assay (Elisa).

endothelin = settings: rats; cited from earlier work
[1] = tested on: pressor response of big ET-1; settings: ganglion-blocked anesthetized rats; cited from earlier work
[2] = tested on: lethality induced by big ET-1; settings: in vivo; cited from earlier work
[3] = tested on: pulmonary vascular resistance; settings: young piglets; cited from earlier work
[4] = tested on: effects of big ET-1 in the microvasculature; settings: anesthetized hamsters; cited from earlier work
[5] = tested on: pressor response of big ET; settings: cited from earlier work
[6] = tested on: effects of intracisternal big ET-1; settings: anesthetized dogs; cited from earlier work
[7] = tested on: hemodynamic actions of big ET-1; settings: rat brain; cited from earlier work
infarct size = settings: IV, 24 hour postischemia; cited from earlier work
[8] = tested on: vasoconstrictor effects evoked by big ET-1; settings: anaesthetized pigs; cited from earlier work
ECE = ECE in vitro, cited from earlier work
vascular strips = settings: cited from earlier work
[9] = in vivo; cited from earlier work
gastric mucosa = settings: 50 to 500 pmol/kg into the left gastric artery; cited from earlier work

CC(C)C[C@@H]1NC(=O)[C@@H](C(C)C)NC(=O)[C@@H]2CCCN2C(=O)[C@@H](CC(=O)O)NC(=O)[C@@H](Cc2c[nH]c3ccccc23)NC1=O [BQ-123] (cyclo(L[dW][dD]P[dV]))
preischemic increase in coronary perfusion pressure induced by big ET-1 and its preischemic effect (isolated rat hearts): abolished the preischemic increase in coronary perfusion pressure induced by big ET-1 as well as its preischemic effect | ET-1-induced bronchoconstriction and tracheal smooth muscle contraction (ET receptor): block ET-1-induced bronchoconstriction and tracheal smooth muscle contraction in allergic sheep | survival rate (ETA): significantly increased the survival rate in this model

O=P(O)(O)CNC(Cc1ccc(-c2ccccc2)cc1)c1nn[nH]n1 (stereo not drawn) [CGS 26303]
antihypertensive responses in the SHR (SHR): effective at lowering the antihypertensive responses in the SHR

COc1cc(C(=O)O)nc(-c2csc(CCCCCC(C)O)n2)c1OC (stereo not drawn) [Example 1, 6-[2-(6-Hydroxy-heptyl)-thiazol-4-yl]-4,5-dimethoxy-pyridine-2-carboxylic acid]
IC50 (human ECE-1): 1300 nM

COc1cc(C(=O)O)nc(-c2csc(C)n2)c1OC [Example 2, 6-(2-Methyl-thiazol-4-yl)-4,5-dimethoxy-pyridine-2-carboxylic acid]
IC50 (human ECE-1): 1900 nM

CCCCCCCc1nc(-c2nc(C(=O)O)cc(OC)c2OC)cs1 [Example 3, 6-(2-Heptyl-thiazol-4-yl)-4,5-dimethoxy-pyridine-2-carboxylic acid]
IC50 (human ECE-1): 1300 nM

COc1cc(C(=O)O)nc(-c2csc(N)n2)c1OC [Example 4, 6-(2-Amino-thiazol-4-yl)-4,5-dimethoxy-pyridine-2-carboxylic acid]
IC50 (human ECE-1): 1000 to 5000 nM

CNc1nc(-c2nc(C(=O)O)cc(OC)c2OC)cs1 [Example 5, 6-(2-N-Methylamino-thiazol-4-yl)-4,5-dimethoxy-pyridine-2-carboxylic acid]
IC50 (human ECE-1): 1000 to 5000 nM

COc1cc(C(=O)O)nc(-c2cscn2)c1OC [Example 6, 6-(Thiazol-4-yl)-4,5-dimethoxy-pyridine-2-carboxylic acid]
IC50 (human ECE-1): 5000 to 10000 nM

COc1cccc(Oc2c(NS(=O)(=O)c3ccc(C(C)(C)C)cc3)ncnc2OCCO)c1 [RO 46-2005]
efficacy in acute renal ischemia and subarachnoid hemorrhage (endothelin): effective in models of acute renal ischemia and subarachnoid hemorrhage in rats

CC(C)C[C@H](NP(=O)(O)O[C@@H]1O[C@@H](C)[C@H](O)[C@@H](O)[C@H]1O)C(=O)N[C@@H](Cc1c[nH]c2ccccc12)C(=O)O [phosphoramidon]
preischemic increase in coronary perfusion pressure induced by big ET-1 and its preischemic effect (isolated rat hearts): abolished the preischemic increase in coronary perfusion pressure induced by big ET-1 as well as its preischemic effect | pressor response of big ET-1 [1]: blocked by phosphoramidon in a dose-dependent manner | lethality induced by intravenous infusion of big ET-1 [2]: suppress the lethality induced by the intravenous infusion of big ET-1 | elevated pulmonary vascular resistance after cardiopulmonary bypass [3]: reduce elevated pulmonary vascular resistance after cardiopulmonary bypass | effects of big ET-1 in the microvasculature [4]: inhibit the effects of big ET-1 in the microvasculature of anesthetized hamsters | inhibition of effects of ET-1 (versus big ET-1) ([5]; in all cases (studies cited in b8)): inhibited the effects of big ET-1 and not ET-1 | block of the pressor response of big ET ([5]; micromolar concentrations, in vitro and in vivo): block the pressor response of big ET both in vitro and in vivo | decreased basilar artery caliber and elevated systemic arterial pressure by intracisternal big ET-1 [6]: These effects were blocked by phosphoramidon | inhibition of hemodynamic actions of big ET-1 [7]: phosphoramidon sensitive inhibition of hemodynamic actions of big ET-1 in rat brain | infarct size (infarct size): significantly reduce infarct size 24 hour postischemia | plasma ET-1 level [8]: did not have any effect on the plasma ET-1 level | vasoconstrictor effects evoked by intravenous injections of big ET-1 [8]: inhibit vasoconstrictor effects evoked by intravenous injections of big ET-1 | IC50 (ECE): ~1000 nM | IC50 (ECE; listed as Phosphoramidon): 1000 nM

Big ET: 38 (human) or 39 (porcine) amino acid peptide known as big endothelin or proendothelin (CSCSSLMDKECVYFCHLDIIWVNTPEHVVPYGLGSPRS; ends and bridges not checked; cysteine pairing not given here; UniProt P05305 53-90, looked up)
time to contracture in globally ischemic rat hearts (isolated rat hearts): significantly reduced the time to contracture | IC50 (isolated rat hearts): 2 nM | potency relative to ET-1 in inducing contractile activity (vascular strips): 1% | potency relative to ET-1 at raising blood pressure [9]: equally potent in vivo at raising blood pressure

ET-1: a potent vasoconstrictor, is a 21 amino acid bicyclic peptide
time to contracture in globally ischemic rat hearts (isolated rat hearts): significantly reduced the time to contracture | IC50 (isolated rat hearts): 0.012 nM | gastric mucosal hemorrhagic change (gastric mucosa): induced gastric mucosal hemorrhagic change in a dose-dependent manner | tissue type plasminogen activator release and platelet activating formation (gastric mucosa): increased the tissue type plasminogen activator release and platelet activating formation
